{"source": "patent US20230143932A1", "about": "“PIN6 PROTEINS FOR THE FORMATION OF NODULE-LIKE STRUCTURES” (University of Freiburg, priority 2021, published 2023)", "assay_in_all_cases": "Root organogenesis response to transient auxin treatment (pseudonodule count)", "assay_type_in_all_cases": "in vivo", "key": {"[1]": {"system": "Hordeum vulgare cultivar Golden Promise", "details": "Hordeum vulgare (barley) roots, 50 μM for 1 hour, counted 7 days after treatment", "experimental": "(§1) In order to investigate the potential impact of auxin and cytokinin treatment on root organogenesis, seeds of the Medicago truncatula cultivar Jester, the Lotus japonicus ecotype Gifu, and the Hordeum vulgare cultivar Golden Promise were sterilized, and then seedlings were grown on FP media (without Nitrogen and Phosphorus) for 3, 7, and 2 days, respectively. Grown plants were transformed to FP media with either control treatment, 50 μM of 2,4-Dichlorophenoxyacetic acid (synthetic auxin), 100 nM of 6-Benzylaminopurine (synthetic cytokinin) or both of the hormones for 1 hour before moving to FP media. FIG. 1A-1C show the number of pseudonodules/Arrested Lateral roots (ALR) counted 7 days after control treatment, treatment with 2,4-Dichlorophenoxyacetic acid (2,4-D), 6-Benzylaminopurine (BAP), or both."}, "[2]": {"system": "Lotus japonicus ecotype Gifu", "details": "50 μM for 1 hour, counted 7 days after treatment", "experimental": "as §1"}, "[3]": {"system": "Medicago truncatula cultivar Jester", "details": "50 μM for 1 hour, counted 7 days after treatment", "experimental": "as §1"}}, "data": [{"smiles": "O=C(O)COc1ccc(Cl)cc1Cl", "note": "[2,4-Dichlorophenoxyacetic acid]", "values": [{"measurement": "pseudonodule formation compared with control plants", "setting": "[1]", "value": "increased pseudonodule formation"}, {"measurement": "pseudonodule formation compared with control plants", "setting": "[1]; listed as auxin", "value": "formation of pseudonodules"}, {"measurement": "pseudonodule formation compared with control plants", "setting": "[2]", "value": "increased pseudonodule formation"}, {"measurement": "pseudonodule formation compared with control plants", "setting": "[3]", "value": "increased pseudonodule formation"}]}]}
